The record followed here is the supplement of paper PMC4862054.

Settings in all cases: incubation time: 72 h
Test [1] deals with MDA-MB-436. Nature of the test: drug sensitivity score (DSS), CellTiter-Blue viability (DSS (AUC-based score)); higher = stronger viability inhibition; extreme values may be limits of the assay. Here is the method:
(§1)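 DSRT with the CellTiter-Blue (resazurin reduction) viability readout, fluorescence 560/590 nm, 72 h incubation. Plates were normalised to DMSO and benzethonium chloride controls. DSS is computed from the area under the fitted dose-response curve (5 or 9 concentrations).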

The test system of test [2] is MDA-MB-453. Described as above. Here is the method:
as §1

Test [3] concerns MFM-223. The description is as above. As to the method: as §1
Test [4] relates to HCC1937. Described as above. Here is the method: as §1
Test [5] relates to CAL-51. The description is as above. Here is the method: as §1
The subject of test [6] is Hs578T. The description is as above. Here is the method:
as §1

Test [7] has as its system CAL-85-1. Described as above. As to the method: as §1
Test [8] has as its system HCC1143. Described as above. Here is the method: as §1
Test [9] relates to CAL-120. The description is as above. As to the method: as §1
Test [10] concerns MDA-MB-468. The description is as above. As to the method:
as §1

In test [11] the test system is MDA-MB-436. Nature of the test: normalised response (% of control), CellTox Green; higher = less cell death (100 = DMSO, 0 = benzethonium chloride kill control). Put shortly: (§2)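 A 20 µl suspension of breast cancer cells was seeded into each well of 384-well plates containing compound at 5 concentrations in 10-fold steps over a compound-specific 10,000-fold range. After 72 h incubation, CellTox Green fluorescence (485/520 nm) was read first, and CellTiter-Glo luminescence was read after 10 min at room temperature. Each plate was normalised against 0.1 % DMSO (100) and a positive kill control (0), and each value is the normalised signal at one concentration.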

The next test concerns MCF-10A. Described as above. Put shortly: as §2
Test [12] has as its system MDA-MB-453. Described as above. Put shortly: as §2
The subject of test [13] is MFM-223. The test is described as above. Put shortly: as §2
The next test concerns CAL-148. The test is described as above. Put shortly: as §2
Another test has as its system HCC1599. The description is as above. Put shortly:
as §2

The subject of test [14] is HCC1937. Described as above. Put shortly: as §2
Another test deals with DU-4475. The test is described as above. Put shortly: as §2
The next test deals with BT-549. Described as above. Put shortly: as §2
The test system of test [15] is CAL-51. Described as above. Put shortly:
as §2

For test [16], the system named is Hs578T. Described as above. Put shortly:
as §2

Test [17] relates to CAL-85-1. The test is described as above. Put shortly: as §2
Test [18] concerns HCC1143. Described as above. Put shortly: as §2
A further test relates to BT-474. The test is described as above. Put shortly:
as §2

For another test, the system named is HDQ-P1. The description is as above. Put shortly: as §2
Test [19] deals with CAL-120. Described as above. Put shortly: as §2
The subject of test [20] is MDA-MB-468. Described as above. Put shortly:
as §2

The test system of another test is MDA-MB-231. The test is described as above. Put shortly:
as §2

`CCS(=O)(=O)c1cccc(-c2cc(C(=O)NC3CCN(C)CC3)c(C)c3[nH]c4ncc(C)cc4c23)c1` [TAK-901]: the drug sensitivity score in the test on MDA-MB-436 [1] stood at 1.92; with MDA-MB-453 [2], 10.7; in the test on MFM-223 [3], 10.3; with HCC1937 [4], 6.44; in the test on CAL-51 [5], 8.9; in the test with Hs578T [6], 6.31. Moreover, the drug sensitivity score with CAL-85-1 [7] is 5.05; in the test on HCC1143 [8] it was 8.44; with CAL-120 [9], 10; with MDA-MB-468 [10] it was 0.762.
With `C#Cc1cccc(Nc2ncnc3cc(OC)c(OCCCCCCC(=O)NO)cc23)c1` [CUDC-101], the drug sensitivity score in the test with MDA-MB-436 [1] came to 10.6; with MDA-MB-453 [2], 19.9; in the test with MFM-223 [3], 15.6; with HCC1937 [4] it was 11.3; in the test on CAL-51 [5], 4.16; in the test with Hs578T [6] it was 15.6. The drug sensitivity score was 15 in the test on CAL-85-1 [7], 12.4 in the test on HCC1143 [8], 11.8 in the test with CAL-120 [9] and 18 in the test with MDA-MB-468 [10].
On to `CN1CCN(c2ccc3nc(-c4c(N)c5c(F)cccc5[nH]c4=O)[nH]c3c2)CC1` [Dovitinib], for which the drug sensitivity score with MDA-MB-436 [1] was found to be 0; with MDA-MB-453 [2] it was 0; in the test on MFM-223 [3] it was 0; in the test on HCC1937 [4], 3.16; with CAL-51 [5] it was 0; in the test on Hs578T [6], 0. The drug sensitivity score in the test on CAL-85-1 [7], in the test on HCC1143 [8], in the test on CAL-120 [9] and in the test with MDA-MB-468 [10] was 0 throughout.
For the molecule `COc1cccc2c1C(=O)c1c(O)c3c(c(O)c1C2=O)C[C@@](O)(C(C)=O)C[C@@H]3O[C@H]1C[C@H](N)[C@H](O)[C@H](C)O1` [Daunorubicin], the drug sensitivity score in the test on MDA-MB-436 [1] stood at 10.8; in the test with MDA-MB-453 [2] it was 3.7; in the test on MFM-223 [3], 2.14; in the test on HCC1937 [4], 14.9; with CAL-51 [5], 13.7; in the test on Hs578T [6] it was 9.16. The drug sensitivity score worked out at 5.47 in the test with CAL-85-1 [7], 10.9 in the test with HCC1143 [8], 13.1 with CAL-120 [9] and 11.1 in the test with MDA-MB-468 [10].
`CC(C)C[C@H](NC(=O)[C@H](Cc1ccccc1)NC(=O)c1cnccn1)B(O)O` [Bortezomib]: the drug sensitivity score was determined as 16.2 in the test with MDA-MB-436 [1]; 22.7 in the test on MDA-MB-453 [2]; 22.5 with MFM-223 [3]; 27.3 in the test with HCC1937 [4]; 16.8 with CAL-51 [5]; 19.7 in the test on Hs578T [6]. In addition, the drug sensitivity score was found to be 24.8 with CAL-85-1 [7], 21.6 in the test on HCC1143 [8], 26.4 with CAL-120 [9] and 29.8 in the test on MDA-MB-468 [10].
In the case of `O=c1[nH]c(=O)n([C@H]2C[C@H](O)[C@@H](CO)O2)cc1F` [Floxuridine], the drug sensitivity score was 10.6 in the test on MDA-MB-436 [1]; 4.36 in the test with MDA-MB-453 [2]; 0 in the test with MFM-223 [3]; 3.61 with HCC1937 [4]; 21.3 with CAL-51 [5]; 9.02 in the test with Hs578T [6]. The drug sensitivity score in the test on CAL-85-1 [7] amounted to 14; with HCC1143 [8], 3.31; in the test with CAL-120 [9], 19.1; in the test with MDA-MB-468 [10] it was 17.8.
In the case of `COc1ncc(-c2ccc3nccc(-c4ccnnc4)c3c2)cc1NS(=O)(=O)c1ccc(F)cc1F`, the drug sensitivity score with MDA-MB-436 [1] came out at 14.2; with MDA-MB-453 [2], 25.7; in the test on MFM-223 [3] it was 20.6; in the test with HCC1937 [4], 12.3; with CAL-51 [5] it was 21.4; in the test on Hs578T [6] it was 15.1. The drug sensitivity score with CAL-85-1 [7] worked out at 16.8; in the test with HCC1143 [8], 14.6; with CAL-120 [9], 16.3; in the test on MDA-MB-468 [10], 14.2.
Regarding `COC1=CC(c2cc3ccccc3[nH]2)=N/C1=C\c1[nH]c(C)cc1C` [Obatoclax], the drug sensitivity score in the test on MDA-MB-436 [1] worked out at 13.7; with MDA-MB-453 [2], 13.8; with MFM-223 [3], 7.09; in the test on HCC1937 [4] it was 25.1; in the test on CAL-51 [5], 7.63; in the test on Hs578T [6] it was 16.6. The drug sensitivity score in the test on CAL-85-1 [7] amounted to 8.55; with HCC1143 [8], 9.51; in the test on CAL-120 [9], 25.3; with MDA-MB-468 [10], 16.6.
Regarding `O=c1[nH]cc(F)c(=O)[nH]1` [Fluorouracil], the drug sensitivity score in the test on MDA-MB-436 [1] was 1.93; in the test with MDA-MB-453 [2], 1.33; in the test with MFM-223 [3], 0; in the test on HCC1937 [4], 0; in the test on CAL-51 [5] it was 1.79; in the test on Hs578T [6], 0. For the same molecule, the drug sensitivity score stood at 5.28 with CAL-85-1 [7], 0 with HCC1143 [8], 2.97 in the test on CAL-120 [9] and 0.272 with MDA-MB-468 [10].
Take `O=c1[nH]cc(F)c(=O)[nH]1` [Fluorouracil] (1000 nM): the normalised response was found to be 101% in the test on MDA-MB-436 [11]; 111% in the test with MCF-10A; 87.5% with MDA-MB-453 [12]; 102% in the test with MFM-223 [13]; 98.5% in the test with CAL-148; 101% in the test with HCC1599. The normalised response in the test on HCC1937 [14] was 94.5%; in the test on DU-4475 it was 105%; in the test on BT-549, 109%; in the test on CAL-51 [15] it was 114%; in the test on Hs578T [16], 60.9%; in the test on CAL-85-1 [17], 101%. The normalised response with HCC1143 [18] stood at 110%; in the test on BT-474, 101%; in the test with HDQ-P1, 107%; in the test on CAL-120 [19] it was 105%; in the test on MDA-MB-468 [20], 96.7%; in the test with MDA-MB-231, 106%.
For the molecule `CN1CCN(c2ccc3nc(-c4c(N)c5c(F)cccc5[nH]c4=O)[nH]c3c2)CC1` [Dovitinib] (1000 nM), the normalised response is 95.8% in the test on MDA-MB-436 [11]; 104% in the test with MCF-10A; 101% with MDA-MB-453 [12]; 102% with MFM-223 [13]; 103% in the test on CAL-148; 106% with HCC1599. Besides, the normalised response in the test on HCC1937 [14] was 128%; with DU-4475, 98.6%; in the test on BT-549, 131%; in the test with CAL-51 [15], 105%; in the test on Hs578T [16], 80.1%; with CAL-85-1 [17] it was 97.8%. For the same molecule, the normalised response in the test on HCC1143 [18] is 104%; in the test with BT-474, 97.7%; in the test on HDQ-P1 it was 106%; in the test with CAL-120 [19] it was 94%; in the test on MDA-MB-468 [20] it was 167%; in the test with MDA-MB-231, 88.5%.
